These results are taken from US20020127228A1, “PGT and apoptosis” (WELFIDE CORPORATION, priority 1998, published 2002).

Each structure is given as a SMILES string.

One experiment deals with T1, PGT (Rattus norvegicus, UniProt Q00910).
T1 construct: endogenous in cells; host or cells: differentiated PC12 cells
The experiment in a line: Uptake of tritium-labelled PGE1 into differentiated PC12 cells through PGT. Type of experiment: cell-based. The settings on record: tritium-labelled PGE1 0.1 μM, mean ± SEM. The procedure:
1) Differentiated PC12 cells and tritium-labelled PGE1 (added concentration: 0.1 μM) were subjected to 10 mins of incubation at 37° C. Afterwards, the cells were washed with ice-cold phosphate buffered saline containing 5 g/l of bovine serum albumin and next washed with ice-cold phosphate buffered saline. Then, radioactivity was measured. The amount of PGE1 uptake into PC12 cells was calculated.
2) Bromcresol green (hereinafter noted as “BrCG”), which is a PGT inhibitor, was placed together in the culture medium at the addition of PGE1. Afterwards, treatment was conducted in the same manner as mentioned in 1).
3) The antisense oligonucleotide specific to PGT cDNA was designed as follows:
Moreover, said antisense was thioate modified. Using Lipofectin (Gibco), PC12 underwent transfection during 2 days prior to the addition of PGE1. Afterwards, treatment was conducted in the same manner as mentioned in 1).

In experiment [1] the test system is rat cerebral cortical neurons. Nature of the experiment: Apoptosis induced by amyloid beta peptide in rat cerebral cortical neurons, Hoechst 33342. Type of experiment: cell-based. The procedure: The cortex region of embryonic day 17 or 18 rat cerebrum was extracted on ice. Cells were dispersed using a neuron dispersal solution (Sumilon) after sectioning. Afterwards, cells were dispersed to a density of 1.5×10^5 cells/cm^2 in a culturing flask that was coated with polyethyleneimine beforehand. After 4 days of culturing, the following experiment was provided. Therefore, as the culture medium, Neurobasal medium (Gibco) adding with B27 supplement (1/50 volume), 2-mercaptoethanol (27.5 μM), L-glutamic acid (25 μM), and glutamine (0.5 mM) was used.
Amyloid beta peptide 25-35 (Aβ25-35) was dissolved in distilled water to a concentration of 1 mM, incubated for 1 week at about 37° C., and Aged-Aβ25-35 was prepared. The induction of apoptosis in neuron was performed by the replacement of the aforementioned culture medium (with the exception of L-glutamicacid) containing 10 μM Aged-Aβ25-35.
4) It was investigated that the suppressing effect of PGE1 on apoptosis induced by amyloid beta peptide. After dissolution of PGE1 in ethanol, when the aforementioned 2) Aged-Aβ25-35 was added to the culture medium, simultaneously PGE1 solution was added to it. The final concentration thereof was 1 μM.
Cells were washed with PBS (−) at 24 hrs after induction of apoptosis and fixed for 30 mins at room temperature using a 1% glutaraldehyde solution (in PBS). Next, cell were washed with PBS (−) two times and followed by incubation with 1 mM Hoechst 33342 solution (in PBS) for 2 mins. Afterwards, observation of nuclear chromatin morphology was conducted using a fluorescence microscope with 4 arbitrary visual fields. Normal cells and apoptotic cells (cell where chromatin fragmentation or condensation was appeared) were counted, and the ratio was calculated as the incidence of apoptosis. The n was 3.
6) The relationship between PGT inhibitors and apoptosis induced by amyloid beta peptide was investigated. BrCG, which is a PGT inhibitor, with a final concentration of 60 μM was added simultaneously with PGE1 but other manners were in accordance with the aforementioned ones in 1)-5).
It was investigated that the influence of PGT antisense on the inhibitory effect of PGE1 against apoptosis induced by amyloid beta peptide. PGT antisense was used as it is with regard to the oligonucleotide in Experiment 3. The addition concentration thereof was 1.5 μM. Incidence of apoptosis was performed in accordance with Experiment 5. Then was 3.
1) Drugs having an inhibitory activity against induction of apoptosis by amyloid beta peptide were investigated. After dissolving test drugs (PGE1, PGK1, PGK2, and bicyclo PGE2) in ethanol, when Aged-Aβ25-35 was added to the culture medium, simultaneously test drug solution were added to it. But other manners were in accordance with Experiment 5. Ratio of normal cells and apoptotic cells allowed calculation of the rate of inhibition of apoptosis induction.

Take `CCCCC[C@H](O)/C=C/[C@H]1[C@H](O)CC(=O)[C@@H]1CCCCCCC(=O)O` [PGE1, prostaglandin E1]: the “Amount of PGE1 uptake” value on PGT (10 mins at 37° C., no BrCG (Table 3)) stood at 73 ± 11 fmol/mg protein/10 mins; at PGT (no antisense (Table 4)) it was 78 ± 11 fmol/mg protein/10 mins. Moreover, the “Effect on apoptosis induced by amyloid beta peptide (in words)” value in experiment [1] is “suppressed apoptosis inducted by amyloid beta peptide”. The “Incidence of apoptosis (%)” value is reported as 23 ± 2 % in experiment [1] (Experiment 5, PGE1 1 μM, 10 μM Aged-Aβ25-35, 24 hrs, n 3) and 23 ± 2 % in experiment [1] (Experiment 6, PGE1, Aged-Aβ25-35, n 3). The “Inhibition of apoptosis induction (%)” value in experiment [1] (Experiment 7, test drug added with Aged-Aβ25-35) was found to be 38.2%.
